Consider four compounds from patent US4698352A, “4-oxo-1,4-dihydronicotinic acid derivatives, salts thereof, and antibacterial agents containing the same” (Toyama Chemical Co., Ltd., priority 1982, dated 1987).

≈ marks a conversion by molar mass, not a printed value. Like-named read-outs stand apart in the source and are kept apart here.

Holding throughout (assay): Antibacterial activity (MIC), agar dilution
What all share (format): cell-based
On the technique in general: Agar dilution tests growth on a series of plates holding different concentrations.

The test system of one test is Ps. aeruginosa GN918**. Conditions: Pseudomonas aeruginosa, Ps. aeruginosa GN918, cephalospolinase-producing, 10^6 cells per ml. An excerpt:
(§1) The amount of bacteria inoculated was 10^4 cells per plate (10^6 cells per ml).
(§2) ** Cephalospolinase-producing bacteria

The subject of a further test is Pro. vulgaris GN76**. The conditions noted are these: Proteus vulgaris.
Source text: as §1, §2

The subject of a further test is E. coli GN5482**. Conditions: Escherichia coli, 20 h; E. coli GN5482, cephalospolinase-producing; 10^6 cells per ml; read-out: MIC.
Source text: as §1, §2

Another test relates to Kl. pneumoniae Y-4*. Conditions: Klebsiella pneumoniae, 20 h, Kl. pneumoniae Y-4, penicillinase-producing; 10^6 cells per ml; read-out: MIC.
Source text: as §1
(§3) * Penicillinase-producing bacteria

The next test has as its system E. coli TK-3*. Conditions: Escherichia coli, 20 h, E. coli TK-3, penicillinase-producing; 10^6 cells per ml; read-out: MIC.
Source text: as §1, §3

A further test concerns Ps. aeruginosa GN3379*. Conditions: Pseudomonas aeruginosa, 20 h; Ps. aeruginosa GN3379, penicillinase-producing; 10^6 cells per ml; read-out: MIC.
Source text: as §1, §3

Another test has as its system St. aureus F-137*. The conditions noted are these: Staphylococcus aureus, 20 h.
Source text: as §1, §3

Another test has as its system St. aureus FDA209P. The conditions noted are these: Staphylococcus aureus, FDA209P, 20 h.
Source text: as §1

The subject of a further test is Kl. pneumoniae Y-41. The conditions noted are these: Klebsiella pneumoniae, Y41, 10^6 cells per ml, 37° C., 20 hours, read-out: MIC.
Source text: as §1

The subject of a further test is E. coli TK-111. The conditions noted are these: Escherichia coli, TK111, 20 h, E. coli TK-111; 10^6 cells per ml; 37° C., 20 hours; read-out: MIC.
Source text: as §1

The subject of a further test is Pro. vulgaris GN3027. The conditions noted are these: Proteus vulgaris, GN3027, 20 h, Pro. vulgaris GN3027; 10^6 cells per ml; 37° C., 20 hours; read-out: MIC.
Source text: as §1

The subject of another test is Ent. cloacae IID977. Conditions: Enterobacter cloacae, IID977, 20 h, Ent. cloacae IID977; 10^6 cells per ml; 37° C., 20 hours; read-out: MIC.
Source text: as §1

In a further test the test system is Ps. aeruginosa S-68. The conditions noted are these: Pseudomonas aeruginosa.
Source text: as §1

Another test has as its system Pro. mirabilis T-111. Conditions: Proteus mirabilis, 37° C.
Source text: as §1

The next test relates to Pro. morganii T-216. Conditions: Morganella morganii, 37° C.
Source text: as §1

The next test concerns Ps. aeruginosa IFO3445. The conditions noted are these: Pseudomonas aeruginosa; Ps. aeruginosa IFO3445; 10^6 cells per ml; 37° C., 20 hours; read-out: MIC.
Source text: as §1

The test system of another test is Kl. pneumoniae Y-50. Conditions: Klebsiella pneumoniae, Y50, 20 h, 10^6 cells per ml, 37° C., read-out: MIC.
Source text: as §1

In a further test the test system is E. coli NIHJ JC-2. The conditions noted are these: Escherichia coli, NIHJJC2, 20 h, E. coli NIHJ JC-2; 10^6 cells per ml; 37° C., 20 hours; read-out: MIC.
Source text: as §1

[1] abbreviates: 20 h, Pro. vulgaris GN76, cephalospolinase-producing, 10^6 cells per ml, read-out: MIC.
Setting [2] is: S68, Ps. aeruginosa S-68, 10^6 cells per ml, 37° C., 20 hours, read-out: MIC.
Setting [3] is: T216, 10^6 cells per ml, 20 hours, read-out: MIC.
[4] abbreviates: St. aureus F-137, penicillinase-producing, 10^6 cells per ml, read-out: MIC.
Where [5] appears, read: St. aureus FDA209P, 10^6 cells per ml, 37° C., 20 hours, read-out: MIC.

Turning to `Cc1cc(F)ccc1-n1cc(C(=O)O)c(=O)cc1C1CC=CCC1` (stereo not drawn), the MIC in the test on Ps. aeruginosa GN918** (20 h, read-out: MIC) was 12.5 µg/mL (≈ 38.2 µM); in the test with Pro. vulgaris GN76** (setting [1]), 6.25 µg/mL (≈ 19.1 µM); in the test with E. coli GN5482**, 0.78 µg/mL (≈ 2.38 µM); with Kl. pneumoniae Y-4*, 25 µg/mL (≈ 76.4 µM); in the test on E. coli TK-3*, 12.5 µg/mL (≈ 38.2 µM); in the test with Ps. aeruginosa GN3379*, 100 µg/mL (≈ 305 µM). The MIC with St. aureus F-137* worked out at 3.13 µg/mL (≈ 9.56 µM); with St. aureus FDA209P, 3.13 µg/mL (≈ 9.56 µM); in the test on Kl. pneumoniae Y-41, 25 µg/mL (≈ 76.4 µM); with E. coli TK-111, 1.56 µg/mL (≈ 4.77 µM); with Pro. vulgaris GN3027 it was 0.39 µg/mL (≈ 1.19 µM); in the test with Ent. cloacae IID977, 12.5 µg/mL (≈ 38.2 µM). The MIC worked out at 50 µg/mL (≈ 153 µM) in the test on Ps. aeruginosa S-68 (setting [2]); 25 µg/mL (≈ 76.4 µM) in the test with Pro. mirabilis T-111 (T111, 10^6 cells per ml, 20 hours, read-out: MIC); 12.5 µg/mL (≈ 38.2 µM) in the test on Pro. morganii T-216 (setting [3]); 100 µg/mL (≈ 305 µM) with Ps. aeruginosa IFO3445; 3.13 µg/mL (≈ 9.56 µM) in the test with Kl. pneumoniae Y-50; 6.25 µg/mL (≈ 19.1 µM) in the test on E. coli NIHJ JC-2.

As for `Cc1nc2ccc(-c3cc(=O)c(C(=O)O)cn3-c3ccc(O)cc3)cc2s1`, the MIC in the test on Ps. aeruginosa GN918** (20 h, read-out: MIC) is 1.56 µg/mL (≈ 4.12 µM); with Pro. vulgaris GN76** (setting [1]), 0.78 µg/mL (≈ 2.06 µM); with E. coli GN5482**, ≤ 0.05 µg/mL; in the test on Kl. pneumoniae Y-4* it was 3.13 µg/mL (≈ 8.27 µM); in the test on E. coli TK-3*, 0.78 µg/mL (≈ 2.06 µM); in the test with Ps. aeruginosa GN3379* it was 12.5 µg/mL (≈ 33 µM). Further, the MIC amounted to 0.39 µg/mL (≈ 1.03 µM) with St. aureus F-137* (setting [4]); 0.39 µg/mL (≈ 1.03 µM) in the test with St. aureus FDA209P (setting [5]); 3.13 µg/mL (≈ 8.27 µM) in the test with Kl. pneumoniae Y-41; 0.2 µg/mL (≈ 0.529 µM) in the test with E. coli TK-111; 0.39 µg/mL (≈ 1.03 µM) with Pro. vulgaris GN3027; 1.56 µg/mL (≈ 4.12 µM) in the test with Ent. cloacae IID977. Further, the MIC turned out to be 12.5 µg/mL (≈ 33 µM) in the test with Ps. aeruginosa S-68 (setting [2]); 3.13 µg/mL (≈ 8.27 µM) with Pro. mirabilis T-111 (T111, 20 h, 10^6 cells per ml); 3.13 µg/mL (≈ 8.27 µM) in the test with Pro. morganii T-216 (T216, 20 h, 10^6 cells per ml); 25 µg/mL (≈ 66.1 µM) with Ps. aeruginosa IFO3445; 0.39 µg/mL (≈ 1.03 µM) in the test with Kl. pneumoniae Y-50; 0.39 µg/mL (≈ 1.03 µM) in the test with E. coli NIHJ JC-2.

For the compound `Cc1nc2cc(-c3cc(=O)c(C(=O)O)cn3-c3ccc(O)cc3)ccc2s1`, the MIC was 1.56 µg/mL (≈ 4.12 µM) in the test on Ps. aeruginosa GN918** (20 h, read-out: MIC); 1.56 µg/mL (≈ 4.12 µM) in the test with Pro. vulgaris GN76** (setting [1]); ≤ 0.05 µg/mL in the test on E. coli GN5482**; 3.13 µg/mL (≈ 8.27 µM) with Kl. pneumoniae Y-4*; 0.78 µg/mL (≈ 2.06 µM) with E. coli TK-3*; 6.25 µg/mL (≈ 16.5 µM) with Ps. aeruginosa GN3379*. Also, the minimum inhibitory concentration (MIC) in the test on St. aureus F-137* (setting [4]) was determined as 0.78 µg/mL (≈ 2.06 µM); in the test on St. aureus FDA209P (setting [5]), 0.39 µg/mL (≈ 1.03 µM); in the test on Kl. pneumoniae Y-41, 3.13 µg/mL (≈ 8.27 µM); in the test on E. coli TK-111, 0.1 µg/mL (≈ 0.264 µM); in the test with Pro. vulgaris GN3027 it was 0.39 µg/mL (≈ 1.03 µM); in the test on Ent. cloacae IID977, 1.56 µg/mL (≈ 4.12 µM). In addition, the MIC was determined as 6.25 µg/mL (≈ 16.5 µM) with Ps. aeruginosa S-68 (setting [2]); 3.13 µg/mL (≈ 8.27 µM) with Pro. mirabilis T-111 (T111, 20 h, 10^6 cells per ml); 3.13 µg/mL (≈ 8.27 µM) in the test on Pro. morganii T-216 (T216, 20 h, 10^6 cells per ml); 12.5 µg/mL (≈ 33 µM) in the test with Ps. aeruginosa IFO3445; 0.78 µg/mL (≈ 2.06 µM) in the test on Kl. pneumoniae Y-50; 0.39 µg/mL (≈ 1.03 µM) in the test on E. coli NIHJ JC-2.

Turning to `COCOC(=O)c1cn(-c2ccc(O)cc2)c(-c2ccc(N(C)C)cc2)cc1=O`, the MIC in the test on Ps. aeruginosa GN918** (GN918, 20 h) was 3.13 µg/mL (≈ 7.94 µM); with Pro. vulgaris GN76** (GN76, 20 h), 3.13 µg/mL (≈ 7.94 µM); in the test on E. coli GN5482**, ≤ 0.05 µg/mL; in the test with Kl. pneumoniae Y-4*, 3.13 µg/mL (≈ 7.94 µM); in the test on E. coli TK-3*, 1.56 µg/mL (≈ 3.96 µM); in the test with Ps. aeruginosa GN3379*, 6.25 µg/mL (≈ 15.8 µM). Also, the MIC with St. aureus F-137* (setting [4]) stood at 0.39 µg/mL (≈ 0.989 µM); with St. aureus FDA209P (setting [5]) it was 0.39 µg/mL (≈ 0.989 µM); in the test with Kl. pneumoniae Y-41 it was 3.13 µg/mL (≈ 7.94 µM); in the test on E. coli TK-111 it was 0.2 µg/mL (≈ 0.507 µM); with Pro. vulgaris GN3027, 0.39 µg/mL (≈ 0.989 µM); in the test with Ent. cloacae IID977, 1.56 µg/mL (≈ 3.96 µM). For the same compound, the MIC stood at 3.13 µg/mL (≈ 7.94 µM) with Ps. aeruginosa S-68 (S68, 20 h); 3.13 µg/mL (≈ 7.94 µM) against Pro. mirabilis T-111 (T111, 20 h, 10^6 cells per ml); 1.56 µg/mL (≈ 3.96 µM) in the test on Pro. morganii T-216 (setting [3]); 6.25 µg/mL (≈ 15.8 µM) in the test with Ps. aeruginosa IFO3445; 0.78 µg/mL (≈ 1.98 µM) in the test on Kl. pneumoniae Y-50; 0.39 µg/mL (≈ 0.989 µM) in the test with E. coli NIHJ JC-2.

Usually MIC stands for the lowest concentration that inhibits growth of the organism.
